Key:
[1] = test system: Acinetobacter baumannii isolates and Acinetobacter baumannii ATCC BAA 747; assay: MIC determination by broth dilution method (CLSI M07-A9); type: cell-based
Experimental: (§1) Minimum Inhibitory Concentration (MIC) is the lowest concentration of an antimicrobial agent that prevents visible growth of a microorganism in an agar or broth dilution susceptibility test. MIC of thymoquinone was determined by the broth dilution method against 33 MDR Acinetobacter baumannii strains and standard sensitive culture collection strain of Acinetobacter baumannii and Pseudomonas aeruginosa. The MIC of gentamicin was deter lined by broth dilution method against six MDR Acinetobacter baumannii strains and standard sensitive culture collection strains of Acinetobacter baumannii and Pseudomonas aeruginosa. MIC testing was performed according to the recommendations and guidelines of Clinical Laboratory Standard Institutes (CLSI M07-A9; 2012). Clinical and Laboratory Standards Institute (CLSI), “Methods for Dilution Antimicrobial Susceptibility Tests for Bacteria That Grow Aerobically; Approved Standard,” Document M07-A9, Clinical and Laboratory Standards Institute (CLSI), Wayne, Pa., USA, 2012.
(§2) Twenty-one grams of Mueller-Hinton Broth (MHB) was suspended in 1 Liter distilled water and then boiled to dissolve the powder completely. The medium was sterilized by autoclaving at 121° C. for 15 min. After autoclaving, the medium was cooled to room temperature before use or stored in the fridge until used.
(§3) Thymoquinone was weighed and dissolved in Dimethyl sulfoxide (DMSO) to produce a thymoquinone stock solution with a concentration of 5,120 μg/ml. Gentamicin sulfate was weighed and dissolved in water to produce a gentamicin sulfate stock solution with a concentration of 5,120 μg/ml, equivalent to gentamicin base.
(§4) Dilutions of thymoquinone and gentamicin sulfate stock solutions were prepared volumetrically in the MHB as follows:
(§5) One mL of original stock solution (5,120 μg/ml) was added to 9 ml sterile MHB to give the working first dilution (512 μg/mL). 12 sterile 7 mL PJ tubes were arranged in a rack in a row. Each tube contained one mL sterile MHB. Ten tubes were labeled as 128 μg/mL, 64 μg/mL, 32 μg/mL, 16 μg/mL, 8 μg/mL, 4 μg/mL, 2 μg/mL, 1 μg/mL, 0.5 μg/mL and 0.25 μg/mL. The eleventh and twelfth tubes were labeled as positive and negative control, respectively.
(§6) The working dilution (512 μg/mL) was serially diluted to give two-fold dilutions. One mL of the working dilution (512 μg/mL) was dispensed in the first tube (labeled as 128 μg/mL) to give a concentration of 256 μg drug/mL MHB. One mL of the first tube was added to the second tube (labeled as 64 μg/mL) to give a concentration of 128 μg drug/mL MHB. One mL of the second tube was transferred to the third tube (labeled as 32 μg/mL) to give a concentration of 64 μg drug/mL MHB. One mL of the third tube was added to the fourth tube (labeled as 16 μg/mL) to give a concentration of 32 μg drug/mL MHB. One mL of the fourth tube was dispensed in the fifth tube (labeled as 8 μg/mL) to give a concentration of 16 μg drug/mL MHB. One mL of the fifth tube was dispensed in the sixth tube (labeled as 4 μg/mL) to give a concentration of 8 μg drug/mL MHB. One mL of the sixth tube was added to the seventh tube (labeled as 2 μg/mL) to give a concentration of 4 μg drug/mL MHB. One mL of the seventh tube was added to the eighth tube (labeled as 1 μg/mL) to give a concentration of 2 μg drug/mL MHB. One mL of the eighth tube was transferred to the ninth tube (labeled as 0.5 μg/mL) to give a concentration of 1 μg drug/mL MHB. One mL of the ninth tube was transferred to the tenth tube (labeled as 0.25 μg/mL) to give a concentration of 0.5 μg drug/mL MHB. The contents were mixed thoroughly by pipetting up and down three times. One mL of the content of the tenth tube was discarded.
(§7) The inoculum suspensions (at 1-2×10^8 CFU/mL) were diluted 1:100 in MHB to obtain 1×10^6 CFU/mL. One mL of the diluted inoculum suspension (1×10^6 CFU/mL) was transferred to each tube except tube 12.
(§8) All inoculated tubes were incubated for 16-20 hours at 37° C. aerobically. […]

[2] = test system: Pseudomonas aeruginosa ATCC 27853; assay: as above; type: cell-based; conditions: P. aeruginosa ATCC 27853
Experimental: as §1, §2, §3, §4, §5, §6, §7, §8

Gentamicin sulfate
MIC ([1]; A. baumannii ATCC BAA 747 (standard sensitive strain)): 1 mg/L
MIC ([1]; isolate AB7): 32 mg/L
MIC ([1]; isolate AB8): 64 mg/L
MIC ([1]; isolate AB10): 32 mg/L
MIC ([1]; isolate AB11): 32 mg/L
MIC ([1]; isolate AB12): 32 mg/L
MIC ([1]; isolate AB13): 32 mg/L
MIC [2]: ≤2 mg/L

Reference: patent US11617726B2, “Method for preventing, treating, or ameliorating a microbial infection” (priority 2018, dated 2023)
